2 compounds from patent publication US20150119352A1, “DINUCELOSIDE POLYPHOSPHATES FOR THE TREATMENT OF PAIN” (GlobalAcorn Ltd., priority 2012, published 2015) can be followed below.

Read-outs that look alike come from different tables or passages of the source.

Assay [1] deals with native P2X3 receptors, nodose ganglia (NG) neurons. Kind of assay: α,β-meATP-induced currents in cultured nodose ganglia neurons. The class given is cell-based, rat. Conditions: 1 μM. Here is the method: (§1) Rat trigeminal (TG), nodose (NG) or dorsal root ganglion (DRG) neurons in culture were prepared as described previously (Sokolova et al., 2001; Simonetti et al., 2006). Neurons were plated on poly-L-lysine (0.2 mg/mL)-coated Petri dishes and cultured for 1 to 2 days under an atmosphere containing 5% CO2. Cells were used within 2 days of plating when they lacked processes. HEK293T cells were prepared as reported previously (Fabbretti et al., 2004; Sokolova et al., 2004) and transfected with rat full-length P2X3 cDNA subcloned into pIRES2-EGFP (Clontech, Mountain View, Calif., USA).
Trigeminal, nodose, DRG neurons or HEK cells were recorded in the whole-cell configuration while being continuously superfused (at 2 mL/min) with control solution containing (in mM): 152 NaCl, 5 KCl, 1 MgCl2, 2 CaCl2, 10 glucose, and 10 HEPES; pH was adjusted to 7.4 with NaOH and osmolarity was adjusted to 320 mOsM with glucose. […] Responses to selective P2X3 receptor agonist α,β-methylene-ATP (α,β-meATP; resistant to ectoATPase hydrolysis, Sigma-Aldrich) were measured using an EPC-9 amplifier and HEKA Patch Master software (HEKA Electronik, Germany). Cells were voltage-clamped at −70 mV. In most cells, series resistance was compensated by 80%. […]
The peak amplitudes of the responses were measured using HEKA Patch Master software. […]

Assay [2] has as its target T1, rat homomeric P2X3 receptors (Rattus norvegicus, UniProt P49654).
T1 construct: transfected with rat full-length P2X3 cDNA subcloned into pIRES2-EGFP; expressed in transfected cells; host or cells: HEK293T
T1 sequence (P49654 1-397): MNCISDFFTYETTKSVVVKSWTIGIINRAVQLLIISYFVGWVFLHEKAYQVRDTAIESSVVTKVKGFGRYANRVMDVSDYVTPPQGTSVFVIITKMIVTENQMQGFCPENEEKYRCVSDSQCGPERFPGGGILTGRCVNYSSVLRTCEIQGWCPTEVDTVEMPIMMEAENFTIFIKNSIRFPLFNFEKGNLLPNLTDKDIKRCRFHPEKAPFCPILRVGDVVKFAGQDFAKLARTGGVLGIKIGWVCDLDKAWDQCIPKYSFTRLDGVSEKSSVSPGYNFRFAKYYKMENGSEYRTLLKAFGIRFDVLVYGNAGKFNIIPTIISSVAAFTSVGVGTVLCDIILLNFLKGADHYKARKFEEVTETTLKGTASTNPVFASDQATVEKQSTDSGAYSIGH
Kind of assay: Whole-cell patch clamp on HEK cells expressing rat homomeric P2X3 receptors. The class given is cell-based. Conditions: for nH of the activation dose-response curve: activation of P2X3 receptors; for depression of P2X3 current: 1 μM. Here is the method: as §1
Trigeminal, nodose, DRG neurons or HEK cells were recorded in the whole-cell configuration while being continuously superfused (at 2 mL/min) with control solution containing (in mM): 152 NaCl, 5 KCl, 1 MgCl2, 2 CaCl2, 10 glucose, and 10 HEPES; pH was adjusted to 7.4 with NaOH and osmolarity was adjusted to 320 mOsM with glucose. […] Responses to selective P2X3 receptor agonist α,β-methylene-ATP (α,β-meATP; resistant to ectoATPase hydrolysis, Sigma-Aldrich) were measured using an EPC-9 amplifier and HEKA Patch Master software (HEKA Electronik, Germany). Cells were voltage-clamped at −70 mV. In most cells, series resistance was compensated by 80%. To determine half effective concentration of agonist (EC50), dose-response curves for α,β-meATP were constructed by applying different agonist doses to the same cells and fitting them with a logistic equation (Origin 8.0, Microcal, Northampton, Mass.).
Agonists and antagonists were applied, usually for 2 sec, via a rapid superfusion system (Rapid Solution Changer RSC-200; BioLogic Science Instruments, Grenoble, France) placed 100 to 150 μm near the cell. The time for the solution exchange across the cell was approximately 30 ms, as judged with liquid junction potential measurements. All chemicals, including enzymes for cell culture, were from Sigma (St. Louis, Mo.). Culture media were obtained from Invitrogen (Milan, Italy).
The peak amplitudes of the responses were measured using HEKA Patch Master software. For each agonist, dose-response plots were constructed by normalizing data with respect to the maximum response. All data are presented as mean±S.E.M. (n=the number of cells) with statistical significance assessed by paired t-test (for parametric data) or Mann-Whitney rank sum test (for non-parametric data). Best fits of data with a sigmoid function were compared with respective control fits using Origin 8.0 software. A value of P<0.05 was accepted as indicative of statistically significant difference.
The inhibitory (suppressive) potencies of AppNHppA and AppCH2ppA via high affinity desensitization (HAD) were evaluated. The inventors applied both synthetic analogues in different experiments during rhythmic 2 s long (2 […]) activations of P2X3 receptors using 10 μM α,β-meATP (for protocol see FIG. 2 top).
(In patch-clamp work, channel activity is measured electrically.)

`Nc1ncnc2c1ncn2[C@@H]1O[C@H](COP(=O)(O)OP(=O)(O)NP(=O)(O)OP(=O)(O)OC[C@H]2O[C@@H](n3cnc4c(N)ncnc43)C(O)C2O)C(O)C1O` (stereo in doubt) [AppNHppA]: the “inhibition of sustained residual component” value in assay [1] is recorded as 2±4%. In addition, the “inhibition (suppression) of the peak current” value in assay [1] (10 μM α,β-meATP) is recorded as 16.8±11.8%. Also, in assay [2], a half-maximal response (EC50) required 41.6 ± 1.3 µM, the half-inhibitory concentration (IC50) was 0.2 ± 0.04 µM and the “nH of the activation dose-response curve” value is reported as 1.58±0.05. The “amplitude of the following α,β-meATP response” value in assay [2] (10 nM applied for 6 min) is “almost unchanged”. Besides, the “inhibition (suppression) of test responses” value in assay [2] (3 μM) is recorded as “strong (almost full) inhibition”. For the same compound, in assay [2] (0.1 or 1 μM), the “induction of membrane currents” value is given as “not to induce membrane currents”. Also, the “induction of membrane currents” value in assay [2] (10 or 100 μM) was “small and slowly desensitizing currents”. Besides, the remaining activity at 0.1 µM in assay [2] (HEK293, read-out: test responses reduced to (% of control)) stood at 38.2 ± 8.5%. Also, the “current response as % of the response induced by 10 μM of α,β-meATP” value in assay [2] (saturating 1 mM concentration, same cell) is 41.2±13%.

As to `Nc1ncnc2c1ncn2[C@@H]1O[C@H](COP(=O)(O)OP(=O)(O)CP(=O)(O)OP(=O)(O)OC[C@H]2O[C@@H](n3cnc4c(N)ncnc43)C(O)C2O)C(O)C1O` (stereo in doubt) [AppCH2ppA], the “depression of P2X3 current” value came out at 81±3% in assay [2] (α,β-meATP pulses every 30 s (high rate)) and 61.3±5% in assay [2] (α,β-meATP pulses every 2 min (low rate)). Also, the “nH of the activation dose-response curve” value in assay [2] was found to be 2.27±0.56. The EC50 in assay [2] (agonist applied for 2 s, read-out: EC50 for activation of P2X3 mediated currents) is 9.3 ± 1.7 µM. For the same compound, the concentration for half-maximal inhibition (IC50) in assay [2] (test pulses of 10 μM α,β-meATP every 2 min, measured 6 min after drug application, read-out: IC50 for inhibition of P2X3 mediated currents) was 0.55 ± 0.2 µM.

One may read the EC50 as the concentration needed to bring the measured effect to its halfway point. What is called IC50 is the midpoint of a concentration-inhibition curve.
